For the assay, the system named is HT29 xenograft, nude mice, s.c., tumor weight T/C%. The assay can be described thus: NCI In Vivo Anticancer Drug Screen. Data for tumor model HT29;CX-1 Human Adenocarcinoma (MER+) (subcutaneous) in NU/NU Swiss (nude) mice. The conditions noted are these: endpoint: optimum tumor weight change, higher = larger tumour. The method, then:
The antitumor activity of compounds was measured in mice bearing transplantable tumors. Survival or tumor size were measured and the results are expressed as the measurement made in the treated group (T) divided by the measurement made in the vehicle treated control group (C). The tumor model used in this assay is HT29;CX-1 Human Adenocarcinoma (MER+) (subcutaneous) in NU/NU Swiss (nude) mice

Setting [1] is: dose: 50.0 mg/kg/injection, schedule: Q04DX003 (ip), vehicle: saline.
The mark [2] stands for this setting: dose: 200.0 mg/kg/injection, schedule: Q04DX003 (ip), vehicle: saline with Tween-80.
Setting [3] is: dose: 800.0 mg/kg/injection, schedule: Q04DX003 (ip), vehicle: saline.
Where [4] appears, read: dose: 12.5 mg/kg/injection, schedule: Q04DX003 (ip), vehicle: Klucel (hydroxypropylcellulose) (HPC).
Where [5] appears, read: dose: 25.0 mg/kg/injection, schedule: Q04DX003 (ip), vehicle: Klucel (hydroxypropylcellulose) (HPC).
The mark [6] stands for this setting: dose: 50.0 mg/kg/injection, schedule: Q04DX003 (ip), vehicle: Klucel (hydroxypropylcellulose) (HPC).
Where [7] appears, read: dose: 100.0 mg/kg/injection, schedule: Q04DX003 (ip), vehicle: suspension in saline.
The mark [8] stands for this setting: dose: 200.0 mg/kg/injection, schedule: Q04DX003 (ip), vehicle: suspension in saline.
[9] abbreviates: dose: 400.0 mg/kg/injection, schedule: Q04DX003 (ip), vehicle: suspension in saline.
Setting [10] is: dose: 1.0 mg/kg/injection, schedule: Q04DX003 (ip), vehicle: saline.
The mark [11] stands for this setting: dose: 2.0 mg/kg/injection, schedule: Q04DX003 (ip), vehicle: saline.
The mark [12] stands for this setting: dose: 20.0 mg/kg/injection, schedule: Q04DX003 (ip), vehicle: saline with Tween-80.

Molecules are shown by their SMILES. Several values for one entry are separate records, joined by “and”; a condition that tells them apart may be missing. Equal values may be shown once. *1 amine or outer side, *2 acyl side, *3 side chain or, on linkers, in order; H or OH if unused. Where a SMILES comes first, the peptide text is derived from it. Bridges are numbered along the chain shown (N, C = ends). Roman numbers before positions name the chains, in order. [ ]: non-standard residue; d: D form. Actinocin(9to1) = Cc1c2oc3c(C)ccc(C(=O)[*:1])c3nc-2c(C(=O)[*:2])c(N)c1=O; aThr = C[C@H](O)[C@H](N)C(=O)O; NMeV = CN[C@H](C(=O)O)C(C)C; Sar = CNCC(=O)O

Turning to `CO[C@H]1C[C@](C)(O)Cc2cc3c(c(O)c21)C(=O)c1c(O)cc2c(c1C3=O)O[C@@H]1O[C@@]2(C)[C@H](O)[C@@H](N(C)C)[C@@H]1O`, the T/C runs as follows: (dose: 3.13 mg/kg/injection, schedule: Q04DX003 (ip), vehicle: other) 97 % of control; (dose: 6.25 mg/kg/injection, schedule: Q04DX003 (ip), vehicle: other) 124 % of control; (dose: 12.5 mg/kg/injection, schedule: Q04DX003 (ip), vehicle: other) 68 % of control; (dose: 25.0 mg/kg/injection, schedule: Q04DX003 (ip), vehicle: other) 61 % of control and 75 % of control.

Consider `CN(C)c1nc(N(C)C)nc(N(C)C)n1`, for which the T/C (dose: 60.0 mg/kg/injection, schedule: Q07DX005 (ip), vehicle: Klucel (hydroxypropylcellulose) (HPC)) was 91 % of control and 114 % of control; the T/C (dose: 120.0 mg/kg/injection, schedule: Q01DX005 (ip), vehicle: Klucel (hydroxypropylcellulose) (HPC)) was 38 % of control and 47 % of control; the T/C (dose: 120.0 mg/kg/injection, schedule: Q07DX005 (ip), vehicle: Klucel (hydroxypropylcellulose) (HPC)) is 72 % of control and 78 % of control; the T/C (dose: 240.0 mg/kg/injection, schedule: Q04DX005 (ip), vehicle: Klucel (hydroxypropylcellulose) (HPC)) is 27 % of control and 38 % of control; the T/C (dose: 240.0 mg/kg/injection, schedule: Q07DX005 (ip), vehicle: Klucel (hydroxypropylcellulose) (HPC)) was 37 % of control.

On to `CNC(=O)ON(C(C)=O)C(=O)NC`, for which the T/C runs as follows: (dose: 25.0 mg/kg/injection, schedule: Q04DX003 (ip), vehicle: saline) 52 % of control; under setting [1], 59 % of control; (dose: 100.0 mg/kg/injection, schedule: Q04DX003 (ip), vehicle: saline) 98 % of control.

Consider `CC(=O)Oc1ccc[nH]c1=O`, for which the T/C under setting [2] is 96 % of control and the T/C (dose: 400.0 mg/kg/injection, schedule: Q04DX003 (ip), vehicle: saline with Tween-80) was 111 % of control.

For the molecule `CNC=O`, the T/C was 168 % of control (dose: 200.0 mg/kg/injection, schedule: Q04DX003 (ip), vehicle: saline); 78 % of control (dose: 400.0 mg/kg/injection, schedule: Q04DX003 (ip), vehicle: saline); 104 % of control under setting [3].

As for `C1CCC2[N-]CC3CCCCC3[N-]CC3CCCCC3[N-]CC3CCCCC3[N-]CC2C1.[Cu]` (stereo unspecified), the T/C is 62 % of control (dose: 3.13 mg/kg/injection, schedule: Q04DX003 (ip), vehicle: Klucel (hydroxypropylcellulose) (HPC)); 90 % of control (dose: 6.25 mg/kg/injection, schedule: Q04DX003 (ip), vehicle: Klucel (hydroxypropylcellulose) (HPC)); 70 % of control under setting [4]; 94 % of control under setting [5].

Consider `CCN(CC)CCCC(C)Nc1c2ccc(Cl)cc2nc2ccc(OC)cc12` (stereo unspecified), for which the T/C runs as follows: (dose: 50.0 mg/kg/injection, schedule: Q04DX003 (ip), vehicle: saline with Tween-80) 89 % of control; under setting [2], 91 % of control.

Consider `O=C(O)CP(=O)(O)O`, for which the T/C is 94 % of control under setting [3] and 66 % of control (dose: 1600.0 mg/kg/injection, schedule: Q04DX003 (ip), vehicle: saline).

On to `Nc1nc(N)c2cc(CNc3ccc(C(=O)NC(CC(=O)O)CC(=O)O)cc3)ccc2n1`, for which the T/C under setting [6] is 84 % of control.

Regarding `CC(C)=CCNc1ncnc2c1ncn2C1OC(CO)C(O)C1O` (stereo unspecified), the T/C is 106 % of control under setting [7]; 77 % of control under setting [8]; 65 % of control under setting [9]; 64 % of control (dose: 800.0 mg/kg/injection, schedule: Q04DX003 (ip), vehicle: suspension in saline).

`Cc1c(N)nc(C(CC(N)=O)NCC(N)C(N)=O)nc1C(=O)NC(C(=O)NC(C)C(O)CC(=O)NC(C(=O)NC(OC1OC(C)C(N)C(O)C1O)C(O)c1nc(-c2nc(C(=O)NCCCC(N)CC(=O)NCCCNCCCCN)cs2)cs1)C(C)O)C(OC1OC(CO)C(O)C(O)C1OC1OC(CO)C(O)C(OC(N)=O)C1O)c1cnc[nH]1` (stereo unspecified): the T/C (dose: 0.5 mg/kg/injection, schedule: Q04DX003 (ip), vehicle: saline) is 92 % of control; the T/C under setting [10] was 45 % of control; the T/C under setting [11] is 39 % of control.

Take `COc1cccc2c1C(=O)c1c(O)c3c(c(O)c1C2=O)C[C@@](O)(C(=O)CO)C[C@@H]3OC1CC(N)C(OC)C(C)O1` (stereo partly specified): the T/C (dose: 1.56 mg/kg/injection, schedule: Q04DX003 (ip), vehicle: saline) is 80 % of control.

As to `COc1cc([C@@H]2c3cc4c(c(O)c3C[C@H]3COC(=O)[C@@H]32)OCO4)cc(OC)c1O`, the T/C reads like this: (dose: 3.13 mg/kg/injection, schedule: Q04DX003 (ip), vehicle: saline) 63 % of control; (dose: 6.25 mg/kg/injection, schedule: Q04DX003 (ip), vehicle: saline) 53 % of control.

`O=CC(S)CO` (stereo unspecified): the T/C is 119 % of control under setting [7], 96 % of control under setting [8] and 107 % of control under setting [9].

Regarding `N=C(N)SCc1c2ccccc2c(CSC(=N)N)c2ccccc12`, the T/C (dose: 50.0 mg/kg/injection, schedule: Q04DX003 (ip), vehicle: suspension in saline) is 88 % of control.

Consider `Cc1c2oc3c(C)ccc(C(=O)N[C@@H]4C(=O)N[C@H](C(C)C)C(=O)N5CCC[C@H]5C(=O)N(C)CC(=O)N(C)[C@@H](C(C)C)C(=O)O[C@H]4C)c3nc-2c(C(=O)N[C@@H]2C(=O)N[C@H](C(C)C)C(=O)N3CCC[C@H]3C(=O)N(C)CC(=O)N(C)[C@@H](C(C)C)C(=O)O[C@H]2C)c(N)c1=O` (I: [aThr][dV]P[Sar][NMeV] / II: [aThr][dV]P[Sar][NMeV]; ester I:1-I:C, II:1-II:C; linker I:N-II:N via Actinocin(9to1)), for which the T/C reads like this: (dose: 150.0 micrograms/kg/injection, schedule: Q04DX003 (ip), vehicle: saline) 54 % of control; (dose: 300.0 micrograms/kg/injection, schedule: Q04DX003 (ip), vehicle: saline) 42 % of control.

Regarding `CC[C@](O)(C(=O)O)c1cc2n(c(=O)c1CO)Cc1cc3ccccc3nc1-2`, where the note is “dose: 9.0 mg/kg/injection, schedule: Q04DX003 (ip), vehicle: saline”, the T/C was 36 % of control.

With `Oc1ccc(O)cc1`, the T/C under setting [1] was 173 % of control.

As to `COc1cccc2c1C(=O)c1c(O)c3c(c(O)c1C2=O)C[C@@](O)(C(C)=O)C[C@@H]3OC1CC(N)C(O)C(C)O1` (stereo partly specified), the T/C is 71 % of control under setting [10] and 113 % of control under setting [11].

For `CSc1cc(=O)n2c3ccccc3c3ccnc1c32`, the T/C is, setting by setting: under setting [12], 101 % of control; (dose: 160.0 mg/kg/injection, schedule: Q04DX003 (ip), vehicle: saline with Tween-80) 89 % of control and 99 % of control; (dose: 320.0 mg/kg/injection, schedule: Q04DX003 (ip), vehicle: saline with Tween-80) 82 % of control; (dose: 640.0 mg/kg/injection, schedule: Q04DX003 (ip), vehicle: saline with Tween-80) 81 % of control.

As to `CCOC(=O)Nc1cc2c(c(N)n1)N=C(CN(C)c1ccccc1)CN2`, the T/C is, setting by setting: under setting [4], 74 % of control; under setting [5], 116 % of control; under setting [6], 71 % of control; (dose: 100.0 mg/kg/injection, schedule: Q04DX003 (ip), vehicle: Klucel (hydroxypropylcellulose) (HPC)) 90 % of control.

`CC(=O)OCC(=O)[C@@]12OC(C)(C)O[C@@H]1C[C@H]1[C@@H]3CC(C=O)=C4C=C(OCCCl)CC[C@]4(C)[C@@]3(F)[C@@H](O)C[C@@]12C`: under setting [5], the T/C was 52 % of control and 59 % of control.

Regarding `C[C@]12CC[C@@H]3c4ccc(OC(=O)Cc5ccc(N(CCCl)CCCl)cc5)cc4CC[C@H]3[C@@H]1CC[C@@H]2OC(=O)Cc1ccc(N(CCCl)CCCl)cc1`, the T/C was 60 % of control (dose: 150.0 mg/kg/injection, schedule: Q04DX003 (ip), vehicle: saline with Tween-80); 53 % of control and 66 % of control (dose: 1200.0 mg/kg/injection, schedule: Q04DX003 (ip), vehicle: saline with Tween-80).

Take `NC(Cc1ccc(N(CCCl)CCCl)cc1)C(=O)O` (stereo unspecified): the T/C (dose: 5.0 mg/kg/injection, schedule: Q04DX003 (ip), vehicle: Klucel (hydroxypropylcellulose) (HPC)) is 73 % of control.

For the molecule `COc1cc2c[n+](C)c3c4cc5c(cc4ccc3c2cc1OC)OCO5`, the T/C is 111 % of control under setting [12]; 124 % of control (dose: 40.0 mg/kg/injection, schedule: Q04DX003 (ip), vehicle: saline with Tween-80); 50 % of control (dose: 80.0 mg/kg/injection, schedule: Q04DX003 (ip), vehicle: saline with Tween-80).

Broadly, the T/C is the ratio of treated to control.

These data come from PubChem BioAssay AID202 (DTP/NCI, 2004).
